Experimental findings from ChEMBL document CHEMBL5096196, “Utilizing structure based drug design and metabolic soft spot identification to optimize the in vitro potency and in vivo pharmacokinetic properties leading to the discovery of novel reversible Bruton's tyrosine kinase inhibitors” (Bioorg Med Chem, 2021) are described below.

A short description of data set [1]: Apparent permeability of compound across Caco-2/TC-7 monolayers in human Caco-2 cells by LC/MSMS analysis. Type of data set: ADME, cell-based.
The nature of data set [2]: in vitro. The following applies: human, liver microsomes.
The nature of data set [3]: in vitro. The following applies: rat, liver microsomes.
Data set [4] can be described thus: Metabolic stability in rat liver microsomes. The class given is ADME, Microsome.
A short description of data set [5]: Metabolic stability in human liver microsomes. Type of data set: ADME, Microsome.
A short description of the next data set: physchem. The following applies: octanol/water.

As for `O=C1[C@H](Nc2cc(F)cc(Cl)c2)CCCN1[C@@H]1CCCN(c2ncnc3[nH]ccc23)C1`, in data set [1], the Papp turned out to be 28 ×10⁻⁶ cm/s. Consider `O=C(O)/C=N/[C@@H]1CCCN(c2ncnc3[nH]ncc23)C1`, for which the share remaining at 0.5 h in the data set “in vitro [2]” came to 13%; in the data set “in vitro [3]”, 85%. Regarding `N[C@@H](C(=O)N[C@@H]1CCCN(c2ncnc3[nH]ncc23)C1)C1CC1`, the values for the Stability in data set [4] and in data set [5] were 7% and < 5%, respectively. Take `O=C(CO)N[C@@H]1CCCN(c2ncnc3[nH]ncc23)C1`: the share remaining at 0.5 h in the data set “in vitro [2]” came out at 19%; in the data set “in vitro [3]” it was 11%. With `O=C(N[C@@H]1CCCN(c2ncnc3[nH]ncc23)C1)[C@H](O)C1CC1`, the Stability is reported as 6% in data set [4] and < 5% in data set [5]. For the compound `O=C(N[C@@H]1CCCN(c2ncnc3[nH]ncc23)C1)C(O)Nc1cc(Cl)cc(Cl)c1` (some centres not stated), the fraction remaining at 0.5 h is 31% in “in vitro [2]” and < 5% in the data set “in vitro [3]”.

With `O=C1[C@H](Nc2cc(F)cc(Cl)c2)CCCN1[C@@H]1CCCN(c2ncnc3[nH]ncc23)C1`, the logD in “physchem” was 4.
